Data from patent US20160280736A1, “CYCLIC PEPTIDE COMPOUND, AND PREPARATION METHOD, PHARMACEUTICAL COMPOSITION AND USE THEREOF” (HANGZHOU GUANYU BIO-MEDICAL CO., LTD., priority 2013, published 2016).
Read-outs that look alike come from different tables or passages of the source.

What was measured:
[1] = tested on: N-87 (human gastric cancer cells); test: MTT cancer cell growth inhibition; assay type: cell-based; settings: 72 h, N-87 cells, 72 hours incubation
Description: (§1) MTT assay principle is yellow MTT can penetrate membrane into the cell, succinic dehydrogenase of the mitochondria in living cells can make exogenous MTT reduction of insoluble in water of blue-violet acicular formazan for crystallization and deposition in the cell, crystallization can be dissolved dimethyl sulfoxide (DMSO) solution, detected its absorbance at 490 nm/570 nm wavelength by enzyme-linked immunosorbent assay, which can reflect the number of cells.
(§2) Using DMEM+10% FBS culture medium or using 1640+10% FBS culture, respectively.
(§3) Experimental group: 190 μl cell suspension+10 μl different concentrations of drugs (the final concentration is 10^−5˜10^−10 M)
(§4) a) Cells were seeded in 96-well plates with the inoculation of 1500/well, 190 μl/hole, 37° C., 5% of CO2 incubator overnight;
(§5) b) The next day each well was added 10 μl of different drugs. The final concentration of drug was 10^−5˜10^−10 M, three parallel holes; 37° C., 5% CO2 culture incubator for 72 hours incubation;
(§6) c) Per well was added 20 μl 5 mg/ml of MTT, 37° C., 5% CO2 culture incubator for 4 hours incubation;
(§7) d) The supernatant was discarded. Each well was added 100 μl of DMSO and oscillation;
(§8) e) 570 nm readings. Calculate cell viability. GI50 calculation based on the results.

[2] = tested on: A549 (human lung cancer cells); test: MTT cancer cell growth inhibition; assay type: cell-based; settings: 72 hours incubation
Description: as §1, §2, §3, §4, §5, §6, §7, §8

[3] = tested on: lncap (prostate cancer cells); test: MTT cancer cell growth inhibition; assay type: cell-based; settings: 72 hours incubation
Description: as §1, §2, §3, §4, §5, §6, §7, §8

[4] = tested on: MCF-7 (human breast cancer cells); test: MTT cancer cell growth inhibition; assay type: cell-based; settings: 72 hours incubation, MCF-7 cells
Description: as §1, §2, §3, §4, §5, §6, §7, §8

[5] = tested on: DU145 (human prostate cancer cells); test: MTT cancer cell growth inhibition; assay type: cell-based; settings: 72 hours incubation
Description: as §1, §2, §3, §4, §5, §6, §7, §8

[6] = tested on: HT1080 (human fibrosarcoma cells); test: MTT cancer cell growth inhibition; assay type: cell-based; settings: 72 hours incubation
Description: as §1, §2, §3, §4, §5, §6, §7, §8

[7] = tested on: MOLT-4 (human acute lymphoblastic leukemia cells); test: MTT cancer cell growth inhibition; assay type: cell-based; settings: 72 hours incubation
Description: as §1, §2, §3, §4, §5, §6, §7, §8

[8] = tested on: BGC-823 (human gastric cancer cells); test: MTT cancer cell growth inhibition; assay type: cell-based; settings: 72 hours incubation
Description: as §1, §2, §3, §4, §5, §6, §7, §8

[9] = tested on: Hela (human cervical cancer cells); test: MTT cancer cell growth inhibition; assay type: cell-based; settings: 72 hours incubation
Description: as §1, §2, §3, §4, §5, §6, §7, §8

HDAC7 = target: T1, HDAC7 (Homo sapiens, UniProt Q8WUI4); test: HDAC biochemical activity measurement (fluorescent substrate deacetylation); settings: HDAC7 enzyme, 37°, 30 minutes
T1 sequence (Q8WUI4 1-952): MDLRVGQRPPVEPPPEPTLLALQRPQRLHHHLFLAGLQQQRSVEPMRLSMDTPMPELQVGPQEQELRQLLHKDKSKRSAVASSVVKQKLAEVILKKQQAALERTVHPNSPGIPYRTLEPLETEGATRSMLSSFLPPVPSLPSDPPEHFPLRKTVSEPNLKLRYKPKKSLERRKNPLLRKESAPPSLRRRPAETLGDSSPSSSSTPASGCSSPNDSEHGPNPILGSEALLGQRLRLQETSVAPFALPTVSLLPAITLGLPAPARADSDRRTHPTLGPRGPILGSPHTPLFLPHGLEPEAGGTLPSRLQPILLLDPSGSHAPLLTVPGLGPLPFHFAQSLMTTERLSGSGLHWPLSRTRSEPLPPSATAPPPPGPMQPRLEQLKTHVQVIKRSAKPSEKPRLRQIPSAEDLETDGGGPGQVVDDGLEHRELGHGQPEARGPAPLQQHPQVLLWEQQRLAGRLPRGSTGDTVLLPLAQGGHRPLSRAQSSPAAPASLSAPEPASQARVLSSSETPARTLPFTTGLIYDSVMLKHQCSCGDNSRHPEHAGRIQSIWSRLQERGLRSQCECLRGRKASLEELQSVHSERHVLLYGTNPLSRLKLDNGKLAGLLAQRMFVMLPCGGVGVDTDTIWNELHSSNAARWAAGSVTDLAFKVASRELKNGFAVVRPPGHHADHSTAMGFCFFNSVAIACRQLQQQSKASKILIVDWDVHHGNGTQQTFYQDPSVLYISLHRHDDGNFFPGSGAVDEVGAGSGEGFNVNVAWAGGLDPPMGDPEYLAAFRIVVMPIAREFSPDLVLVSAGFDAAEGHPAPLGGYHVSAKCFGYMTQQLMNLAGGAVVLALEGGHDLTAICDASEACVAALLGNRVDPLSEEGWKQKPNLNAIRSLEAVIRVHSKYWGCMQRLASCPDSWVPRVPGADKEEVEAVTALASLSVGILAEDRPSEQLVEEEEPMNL
Description: Measurement principle: The chemical activity of the compound is determined according to the degree of deacetylation inhibition of the HDAC enzyme. […] After the substrate containing an acetylated lysine side chain and HDAC enzyme are labeled with a fluorescent label, the fluorescent substrate is de acetyl. The fluorescent labeled substrate is cleaved by the enzyme, and the fluorescent substance is released, which generates 460 nm emission light under the excitation of 360 nm light.
(§9) Specific steps: HDAC substrate was diluted with reaction buffer to 200M (reaction concentration of 20M), the HDAC enzyme was diluted to the appropriate concentration, then added different concentrations of the test compounds and acted at 37 ? 30 minutes, and then added the same volume of 2-times concentration substrate developing solution (developer), incubated at room temperature for 15 minutes. Finally, the last reading measured with a microplate plate reader, excitation light was 360 nm, the emitted light was 460 nm, data processing software was Prime 4, and the results are shown in Table 1.

[10] = tested on: U937 (human leukemia cells); test: MTT cancer cell growth inhibition; assay type: cell-based; settings: 72 hours incubation
Description: as §1, §2, §3, §4, §5, §6, §7, §8

[11] = tested on: PANC-1 (Pac-1, human pancreatic cancer cells); test: MTT cancer cell growth inhibition; assay type: cell-based; settings: 72 hours incubation
Description: as §1, §2, §3, §4, §5, §6, §7, §8

HDAC3 = HDAC3 (Homo sapiens, UniProt O15379); test: HDAC biochemical activity measurement (fluorescent substrate deacetylation); settings: IC50 (μM) HDAC3, HDAC3 enzyme, 37°, 30 minutes
Description: (§10) Measurement principle: The chemical activity of the compound is determined according to the degree of deacetylation inhibition of the HDAC enzyme. This experiment measured the degree of deacetylation related to tumor proliferation and metastasis of HDAC1, HDAC2, HDAC3, HDAC8, HDAC11 five subtypes HDAC enzymes. After the substrate containing an acetylated lysine side chain and HDAC enzyme are labeled with a fluorescent label, the fluorescent substrate is de acetyl. The fluorescent labeled substrate is cleaved by the enzyme, and the fluorescent substance is released, which generates 460 nm emission light under the excitation of 360 nm light.
as §9

HDAC11 = target: T2, HDAC11 (Homo sapiens, UniProt Q96DB2); test: as above; settings: IC50 (μM) HDAC11, HDAC11 enzyme, 37°, 30 minutes
T2 sequence (Q96DB2 1-347): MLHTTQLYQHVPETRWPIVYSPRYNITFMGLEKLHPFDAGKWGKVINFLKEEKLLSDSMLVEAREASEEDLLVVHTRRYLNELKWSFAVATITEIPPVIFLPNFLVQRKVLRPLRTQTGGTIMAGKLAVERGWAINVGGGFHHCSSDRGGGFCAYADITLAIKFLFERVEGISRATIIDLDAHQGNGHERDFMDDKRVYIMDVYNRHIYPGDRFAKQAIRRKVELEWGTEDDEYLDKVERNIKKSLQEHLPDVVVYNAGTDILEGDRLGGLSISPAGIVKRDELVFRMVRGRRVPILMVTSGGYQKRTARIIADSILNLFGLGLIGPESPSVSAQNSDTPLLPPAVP
Description: as §10, §9

HDAC2 = HDAC2 (Homo sapiens, UniProt Q92769); test: as above; settings: HDAC2 enzyme, 37°, 30 minutes
Description: as §10, §9

HDAC1 = HDAC1 (Homo sapiens, UniProt Q13547); test: as above; settings: HDAC1 enzyme, 37°, 30 minutes
Description: as §10, §9

HDAC8 = target: T3, HDAC8 (Homo sapiens, UniProt Q9BY41); test: as above; settings: HDAC8 enzyme, 37°, 30 minutes
T3 sequence (Q9BY41 1-377): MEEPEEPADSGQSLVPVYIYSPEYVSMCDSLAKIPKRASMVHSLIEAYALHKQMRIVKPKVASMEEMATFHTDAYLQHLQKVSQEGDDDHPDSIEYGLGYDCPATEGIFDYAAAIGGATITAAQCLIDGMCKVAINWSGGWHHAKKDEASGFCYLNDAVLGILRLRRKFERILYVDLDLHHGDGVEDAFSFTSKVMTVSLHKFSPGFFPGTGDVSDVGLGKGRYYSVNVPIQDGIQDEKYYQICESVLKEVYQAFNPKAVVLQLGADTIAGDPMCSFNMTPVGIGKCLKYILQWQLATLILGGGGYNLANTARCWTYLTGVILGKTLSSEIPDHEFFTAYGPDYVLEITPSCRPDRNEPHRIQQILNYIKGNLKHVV
Description: as §10, §9

[12] = A549 cells, read-out: GI50 A549
[13] = lncap cells, read-out: GI50 lncap
[14] = DU145 cells, read-out: GI50 Du14
[15] = HT1080 cells, read-out: GI50 HT10
[16] = MOLT-4 cells, read-out: GI50 Molt-
[17] = BGC-823 cells, read-out: GI50 BGC8
[18] = Hela cells, read-out: GI50 Hela
[19] = PANC-1 cells, read-out: GI50 PAN
[20] = Homo sapiens, LNCaP, 72 h, lncap cells, read-out: GI50 lncap

Chain of HDAC2 (Q92769 whole entry, species assumed): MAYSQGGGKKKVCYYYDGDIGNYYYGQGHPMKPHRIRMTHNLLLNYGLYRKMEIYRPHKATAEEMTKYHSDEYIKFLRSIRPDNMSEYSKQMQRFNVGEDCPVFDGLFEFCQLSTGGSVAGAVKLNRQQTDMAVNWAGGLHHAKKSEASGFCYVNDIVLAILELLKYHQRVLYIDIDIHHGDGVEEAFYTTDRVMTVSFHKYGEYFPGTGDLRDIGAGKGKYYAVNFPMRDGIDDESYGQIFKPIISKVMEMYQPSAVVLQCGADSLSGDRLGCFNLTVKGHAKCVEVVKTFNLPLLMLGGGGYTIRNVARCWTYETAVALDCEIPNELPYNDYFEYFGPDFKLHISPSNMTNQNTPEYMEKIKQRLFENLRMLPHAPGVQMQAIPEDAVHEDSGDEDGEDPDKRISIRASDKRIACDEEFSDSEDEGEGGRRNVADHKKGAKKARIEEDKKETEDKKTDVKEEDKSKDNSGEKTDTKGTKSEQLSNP
Chain of HDAC3 (O15379 whole entry, species assumed): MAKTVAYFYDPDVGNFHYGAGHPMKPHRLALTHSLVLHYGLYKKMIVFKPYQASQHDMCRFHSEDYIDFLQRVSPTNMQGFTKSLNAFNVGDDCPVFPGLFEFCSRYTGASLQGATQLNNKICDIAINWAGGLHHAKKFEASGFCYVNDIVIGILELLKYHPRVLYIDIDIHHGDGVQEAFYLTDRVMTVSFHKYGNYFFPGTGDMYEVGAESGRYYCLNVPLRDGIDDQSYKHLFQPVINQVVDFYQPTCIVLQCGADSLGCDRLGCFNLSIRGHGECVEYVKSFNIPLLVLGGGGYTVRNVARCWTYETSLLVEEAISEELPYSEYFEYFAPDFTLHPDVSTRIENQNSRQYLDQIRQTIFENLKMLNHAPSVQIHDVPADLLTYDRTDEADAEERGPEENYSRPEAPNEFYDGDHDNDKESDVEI
Chain of HDAC3 (Q9Y618 395-489 partner limits assumed, species assumed): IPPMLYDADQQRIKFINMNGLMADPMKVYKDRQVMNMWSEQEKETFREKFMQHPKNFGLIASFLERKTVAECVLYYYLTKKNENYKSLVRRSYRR
Chain of HDAC1 (Q13547 whole entry, species assumed): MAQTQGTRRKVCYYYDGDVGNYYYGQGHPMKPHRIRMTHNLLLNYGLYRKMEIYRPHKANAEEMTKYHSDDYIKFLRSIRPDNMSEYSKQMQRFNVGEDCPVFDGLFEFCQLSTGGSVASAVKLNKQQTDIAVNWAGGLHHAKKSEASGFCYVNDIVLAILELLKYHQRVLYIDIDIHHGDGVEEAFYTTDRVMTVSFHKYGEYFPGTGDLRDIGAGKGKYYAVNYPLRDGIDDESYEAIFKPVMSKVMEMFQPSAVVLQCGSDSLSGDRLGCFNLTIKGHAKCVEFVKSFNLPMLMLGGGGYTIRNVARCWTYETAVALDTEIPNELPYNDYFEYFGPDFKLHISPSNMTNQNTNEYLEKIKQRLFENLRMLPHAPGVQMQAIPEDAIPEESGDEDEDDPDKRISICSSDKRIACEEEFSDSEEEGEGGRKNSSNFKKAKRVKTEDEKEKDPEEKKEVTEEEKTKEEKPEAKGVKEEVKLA

## C/C=C1\NC(=O)c2ccc(F)c(n2)CNC(=O)C[C@@H](/C=C/CCSC(C)=O)OC(=O)[C@H](C(C)C)NC1=O [Compound 95]
[1]
  GI50: 23 nM

## C/C=C1\NC(=O)c2cc(SC)cc(n2)CNC(=O)C[C@@H](/C=C/CCSC(C)=O)OC(=O)[C@H](C(C)C)NC1=O [Compound 224]
[2]; [12]
  GI50: 0.058 µM
[3]; [13]
  GI50: 0.034 µM
[4]
  GI50: 43 nM
[5]; [14]
  GI50: 0.051 µM
[6]; [15]
  GI50: 0.095 µM
[7]; [16]
  GI50: 0.033 µM
[8]; [17]
  GI50: 0.038 µM
[9]; [18]
  GI50: 0.067 µM
HDAC7
  IC50 (μM) HDAC7: no activity

## C/C=C1\NC(=O)c2ncc(SC)c(n2)CNC(=O)C[C@@H](/C=C/CCSC(C)=O)OC(=O)[C@H](C(C)C)NC1=O [Compound 217]
[2]; [12]
  GI50: 0.072 µM
[3]; [13]
  GI50: 0.034 µM
[10]
  GI50: 91 nM
[4]
  GI50: 63 nM
[5]; [14]
  GI50: 0.027 µM
[6]; [15]
  GI50: 0.021 µM
[11]; [19]
  GI50: 0.073 µM
[7]; [16]
  GI50: 0.099 µM
[8]; [17]
  GI50: 0.035 µM
HDAC7
  IC50 (μM) HDAC7: no activity

## C/C=C1\NC(=O)c2nc(cc(SC)n2)CNC(=O)C[C@@H](/C=C/CCSC(C)=O)OC(=O)[C@H](C(C)C)NC1=O [Compound 216]
[3]; [13]
  GI50: 0.016 µM
[10]
  GI50: 86 nM
[4]
  GI50: 55 nM
[5]; [14]
  GI50: 0.029 µM
[6]; [15]
  GI50: 0.058 µM
[11]; [19]
  GI50: 0.021 µM
[7]; [16]
  GI50: 0.046 µM
[8]; [17]
  GI50: 0.066 µM
[9]; [18]
  GI50: 0.076 µM
HDAC7
  IC50 (μM) HDAC7: no activity

## C/C=C1\NC(=O)c2cccc(n2)CNC(=O)C[C@@H](/C=C/CCSC(=O)CCCCCCC)OC(=O)[C@@H](C)NC1=O [Compound 236]
[3]; [20]
  GI50: 0.053 µM

## C/C=C1\NC(=O)c2ccc(SC)c(n2)CNC(=O)C[C@@H](/C=C/CCSC(=O)CCCC)OC(=O)[C@H](C(C)C)NC1=O [Compound 158]
HDAC3
  IC50: 0.053 µM
HDAC11
  IC50: 0.092 µM
HDAC2
  IC50: 0.028 µM
[2]; Homo sapiens, A549, 72 h, A549 cells, read-out: GI50 A549
  GI50: 0.037 µM
[3]; [20]
  GI50: 0.043 µM
[10]; Homo sapiens, U-937, 72 h
  GI50: 42 nM
[4]; Homo sapiens, MCF7, 72 h
  GI50: 21 nM
[5]; Homo sapiens, DU-145, 72 h, DU145 cells, read-out: GI50 Du14
  GI50: 0.063 µM
[6]; Homo sapiens, HT-1080, 72 h, HT1080 cells, read-out: GI50 HT10
  GI50: 0.076 µM
[11]; Homo sapiens, PANC-1, 72 h, PANC-1 cells, read-out: GI50 PAN
  GI50: 0.023 µM
[8]; Homo sapiens, BGC-823, 72 h, BGC-823 cells, read-out: GI50 BGC8
  GI50: 0.032 µM
[9]; Homo sapiens, HeLa, 72 h, Hela cells, read-out: GI50 Hela
  GI50: 0.068 µM
HDAC1
  IC50: 0.081 µM
HDAC8
  IC50: 0.043 µM

## C/C=C1\NC(=O)c2nc(ccc2F)CNC(=O)C[C@@H](/C=C/CCSC(C)=O)OC(=O)[C@H](C(C)C)NC1=O [Compound 93]
[1]
  GI50: 28 nM

## C/C=C1\NC(=O)c2cccc(n2)CNC(=O)C[C@@H](/C=C/CCSC(=O)CCCCCCC)OC(=O)[C@H](C(C)C)NC1=O [Compound 1]
[7]; Homo sapiens, MOLT-4, 72 h, drug concentration required for 50% of cell growth inhibition, read-out: GI50 (μM) Molt-
  GI50: 0.005 µM

## C/C=C1\NC(=O)c2nc(F)cc(n2)CNC(=O)C[C@@H](/C=C/CCSC(C)=O)OC(=O)[C@H](C(C)C)NC1=O [Compound 98]
[2]; drug concentration required for 50% of cell growth inhibition, read-out: GI50 (μM) A549
  GI50: 0.601 µM
[3]; drug concentration required for 50% of cell growth inhibition, read-out: GI50 (μM) lncap
  GI50: 0.025 µM
[5]; drug concentration required for 50% of cell growth inhibition, read-out: GI50 (μM) Du14
  GI50: 0.042 µM
[6]; drug concentration required for 50% of cell growth inhibition, read-out: GI50 (μM) HT10
  GI50: 0.083 µM
[11]; drug concentration required for 50% of cell growth inhibition, read-out: GI50 (μM) PAN
  GI50: 0.083 µM
[7]; drug concentration required for 50% of cell growth inhibition, read-out: GI50 (μM) Molt-
  GI50: 0.025 µM
[8]; drug concentration required for 50% of cell growth inhibition, read-out: GI50 (μM) BGC8
  GI50: 0.052 µM
[9]; drug concentration required for 50% of cell growth inhibition, read-out: GI50 (μM) Hela
  GI50: 0.052 µM
HDAC7
  IC50 (μM) HDAC7: no activity
